Earlier results in patent US20220202680A1, “INCREASING THE STABILITY OF AGENTS FOR TREATING KERATIN MATERIAL” (Henkel AG & Co. KGaA, priority 2019, published 2022).

Details: for solubility in water: 25° C.

solubility in water (in words) (at 25° C.)	Compound	solubility in water
–	O=S(=O)([O-])c1ccc(N=Nc2c(O)ccc3ccccc23)cc1.[Na+] [Acid Orange 7, sodium salt of 4-[(2-hydroxy-1-naphthyl)azo]benzene sulphonate]	more than 7 g/L
–	Nc1cc(S(=O)(=O)[O-])cc2cc(S(=O)(=O)[O-])c(N=Nc3ccccc3)c(O)c12.[Na+].[Na+] [Acid Red 33, diantrium salt of 5-amino-4-hydroxy-3-(phenylazo)-naphthalene-2,7-disulphonate]	2500 µg/mL
–	O=C([O-])c1c(Cl)c(Cl)c(Cl)c(Cl)c1-c1c2c(Br)cc(=O)c(Br)c-2oc2c(Br)c(O)cc(Br)c12.O=C([O-])c1c(Cl)c(Cl)c(Cl)c(Cl)c1-c1c2c(Br)cc(=O)c(Br)c-2oc2c(Br)c(O)cc(Br)c12.[Na+].[Na+] [Acid Red 92, disodium salt of 3,4,5,6-tetrachloro-2-(1,4,5,8-tetrabromo-6-hydroxy-3-oxoxanthen-9-yl)benzoic acid]	greater than 10 g/L
highly soluble	O=C([O-])C1=NN(c2ccc(S(=O)(=O)[O-])cc2)C(=O)C1N=Nc1ccc(S(=O)(=O)[O-])cc1.[Na+].[Na+].[Na+] (stereo not shown) [Acid Yellow 23, trisodium salt of 4,5-dihydro-5-oxo-1-(4-sulfophenyl)-4-((4-sulfophenyl)azo)-1H-pyrazole-3-carboxylic acid]	–
